# Reference: patent publication US20250308265A1, “METHODS AND SYSTEMS FOR CHARACTERIZING MORPHODYNAMIC PROFILES OF OBJECTS” (The Chancellor, Masters and Scholars of the University of …, priority 2022, published 2025)
# Like-named read-outs stand apart in the source and are kept apart here.
# Assays:
# [1] = test system: normal patient-derived duodenal organoids; assay: Chemotherapy drug toxicity screen with human duodenum organoids, label-free timelapse imaging analysed by SPOT; conditions: for phenotype cluster frequency over time (stacked barplots): 5 days
# Protocol: Organoids were plated onto 96 well plates as follows. Using ice-cold PBS, the organoids were retrieved from the Matrigel and briefly microcentrifuged. To aid organoid dissociation, the pellet was vigorously resuspended in Trypsin and incubated at 37° C. for 10 min to ensure a high degree of dissociation. The organoid fragments were then briefly microcentrifuged and resuspended in 200 μL of Matrigel. The resuspended organoids were then kept on ice to prevent gelation of the Matrigel. Then, 2 μL of the organoid suspension was seeded inside each well. During this process, the organoid-Matrigel mix was resuspended every 12 wells to ensure an even mix. The Matrigel was allowed to gelate at room temperature for 5 min. Once the Matrigel solidified, 100 μL of human organoid medium, pre-warmed at 37° C. to prevent the detachment of the Matrigel, was then overlaid and replaced every 2 days. Once the organoids had grown for 6 days inside the 96-well plate, the medium was removed by inversion and washed with pre-warmed PBS at 37° C. After removing the PBS by inversion, the wells were filled with 100 μL of human organoid medium (HOM) with a titration of chemotherapy drugs. […] These concentrations were based on the previously published screening concentrations (van de Wetering, M. et al. Cell 161, 933-945 (2015)). All drugs were solubilized and diluted with DMSO. The different conditions were filmed on a Nikon microscope for 120 h at a frequency of 1 image per hour with a 2× objective.
# Human duodenum organoids were harvested and dissociated into single cells following the passaging procedure described above. Cell pellets were resuspended in 500 μL of PBS. Cells were filtered through the cell strainer (70 μm) and counted with the automated cell counter (BIO-RAD). The appropriate cell dilutions were made in GFR Matrigel. Then, the cells were seeded in a pre-warmed 96-well black tissue culture-treated (TC-treated) sterile microplate (PerkinElmer), and plates were incubated for 10 min in a cell culture incubator at 37° C. and 5% CO2 to solidify the Matrigel. Human duodenum organoid culture media (HOM, Table 9) was added to each well (200 μL) and refreshed every other day. For WNT experiments, before performing timelapse video collection, the HOM media was changed to ENR (EGF, Noggin, R-spondin only) for the ENR imaging conditions. Specifically, group HOM organoids were cultured in HOM culture medium for 14 days. Group ENR+WNT3A (day 3) organoids were under ENR treatment for 3 days and then ENR+Wnt3A for 11 days. Group ENR+WNT3A (day 6) organoids were under ENR treatment for 6 days and then ENR+Wnt3a for the next 8 days. Group ENR+Wnt3A (day 9) organoids were under ENR treatment for 9 days and then under ENR+Wnt3A treatment for 5 days. Group ENR organoids were under ENR treatment for 14 days. All images were acquired using a Nikon TE 2000-E Eclipse inverted microscope, with a 10×/0.3 NA Plan Fluor Ph1 objective. The system was maintained at 37° C. in the presence of 5% CO2. Z-stack images 1000 μm in depth were acquired at 100 μm intervals (11 steps per acquisition) approximately every 60 min for 5 days (chemotherapy drug screen) and 14 days (WNT addition experiments).
# Multicellular structures, such as organoids, have emerged as attractive experimental models. Further, the complex spatiotemporal dynamics of organoids are underlined by the cells' genetic makeup, cell/cell interactions, and the constituent cells' responses to environmental perturbations. SPOT's potential was therefore tested to measure the spatiotemporal dynamics of organoids using normal patient-derived duodenal organoids grown in a 96-well plate and imaged label-free. The entire SPOT workflow was applied to measure organoid response to eight chemotherapy drugs at three different concentrations. 60-100 organoids were seeded per well, and all organoids were filmed every hour for 5 days (stage 1).
# [2] = test system: human duodenum organoids; assay: Delayed WNT3A restoration to ENR-cultured human duodenum organoids, timelapse imaging analysed by SPOT; format: cell-based
# Protocol: Cell pellets were resuspended in 500 μL of PBS. […] The appropriate cell dilutions were made in GFR Matrigel.
# The observed flattening phenotype is visually reminiscent of Apc^min/+ murine colon organoids. However, the role of WNT on the morphodynamic changes of human organoids was unexpected. Whereas Apc^min/+ organoids should have high WNT signaling, ENR medium lacks WNT. To test the direct impact of WNT on the morphological changes of human duodenum organoids, WNT3A, a potent inducer of WNT signaling, was added to the ENR medium at day 3, 6, and 9 after the initial transfer of human duodenum organoids to ENR. […] To quantify the impact of WNT3A restoration, all organoids were grown in 96-well plates for 7 days, and live-cell images were captured every hour for the next 14 days (FIG. 5c). The spatiotemporal dynamics of a library of >500,000 segmented organoid instances over all timepoints and videos were analyzed by SPOT in the same manner as mouse colon organoids, and the organoids were subsequently classified into one of 7 phenotype clusters. Quantifying the expression of representative SAM features, as expected, organoids cultured in HOM were large and spherical, shown by enriched distribution of yellow cluster 6.
# [3] = test system: human duodenum organoids; assay: scRNA-seq of human duodenum organoids (HOM, ENR, ENR+WNT3A); format: cell-based; conditions: restoring WNT3A
# Text: Organoids were individually seeded onto a 24-well plate and cultured for 7 days before treatment as described above.
# For scRNA-seq, Group HOM was collected after the initial 7 days' culture before further treatment, that is day 0 of the timelapse acquisition. […] Group ENR organoids were under ENR treatment for a total of 3, 6, and 9 days, respectively, then collected. After being harvested, the organoids were processed in the same manner as for murine organoids.
# To understand the molecular basis of WNT depletion-induced morphodynamic changes, scRNA-seq was also performed on the human duodenum organoids cultured under conditions and timescales identical to those used for the SPOT analysis. In total, 8763 single cell transcriptomes were generated. […] Examining the expression of WNT, YAP targets, fetal and RSC signatures in organoid-derived cells as a function of the time of WNT3A rescue, it is evident that there is an inverse association between high WNT and high YAP target-expressing cells. Also, the kinetics of RSC signature expression levels coincide with the extent of phenotypic changes detected by SPOT. Thus, WNT-deprived ENR medium induces RSCs that lead to the development of morphologically irregular and flattened organoids.
molecule,measurement,setting,value
O=c1[nH]cc(F)c(=O)[nH]1 [5-fluorouracil],relative toxicity,[1],lower relative toxicity
same,temporal phenotype trajectory,[1],milder toxicity
same,phenotype cluster frequency over time (stacked barplots),[1],approximately maintain the fraction of the cluster 2 large spherical organoid phenotype
"CC(=O)O[C@@]12CO[C@@H]1C[C@H](O)[C@@]1(C)C(=O)[C@H](O)C3=C(C)[C@@H](OC(=O)[C@H](O)[C@@H](NC(=O)OC(C)(C)C)c4ccccc4)C[C@@](O)([C@@H](OC(=O)c4ccccc4)[C@H]21)C3(C)C [docetaxel, Docetaxel]",HMM cluster transition pattern,[1],conserved cluster transition pattern
"COc1cccc2c1C(=O)c1c(O)c3c(c(O)c1C2=O)C[C@@](O)(C(=O)CO)C[C@@H]3O[C@H]1C[C@H](N)[C@@H](O)[C@H](C)O1 [epirubicin, Epirubicin]",HMM cluster transition pattern,[1],conserved cluster transition pattern
same,temporal phenotype trajectory,[1],opposing trajectory from top to bottom
"COc1cc2ncnc(Nc3ccc(F)c(Cl)c3)c2cc1OCCCN1CCOCC1 [gefitinib, Gefitinib]",relative toxicity,[1],lower relative toxicity
same,temporal phenotype trajectory,[1],milder toxicity
same,phenotype cluster frequency over time (stacked barplots),[1],approximately maintain the fraction of the cluster 2 large spherical organoid phenotype
"CCc1c2c(nc3ccc(OC(=O)N4CCC(N5CCCCC5)CC4)cc13)-c1cc3c(c(=O)n1C2)COC(=O)[C@]3(O)CC [irinotecan, Irinotecan]",HMM cluster transition pattern,[1],loses the autoregulatory loop of cluster 2
same,temporal phenotype trajectory,[1],opposing trajectory from top to bottom
"O=C1[O][Pt]2([NH][C@@H]3CCCC[C@H]3[NH]2)[O]C1=O [oxaliplatin, Oxaliplatin]",impact on organoid morphology (UMAP density heatmaps),"[1]; all three concentrations, highest: cisplatin 6, oxaliplatin 20, mitomycin C 0.03, 5-fluorouracil 20, gefitinib 0.5, irinotecan 5, docetaxel 0.0125, epirubicin 4.5 μM, vs DMSO control",limited impact on organoid morphology
same,temporal phenotype trajectory,[1]; compared with DMSO trajectory,Predominant organoid growth
same,relative toxicity,"[1]; final timepoints, maximum concentration, 5 days filming",lower relative toxicity
"WNT3A: a potent inducer of WNT signaling, added to the ENR medium (protein, UniProt P56704 19-352, looked up) Protein Wnt-3a: SYPIWWSLAVGPQYSSLGSQPILCASIPGLVPKQLRFCRNYVEIMPSVAEGIKIGIQECQHQFRGRRWNCTTVHDSLAIFGPVLDKATRESAFVHAIASAGVAFAVTRSCAEGTAAICGCSSRHQGSPGKGWKWGGCSEDIEFGGMVSREFADARENRPDARSAMNRHNNEAGRQAIASHMHLKCKCHGLSGSCEVKTCWWSQPDFRAIGDFLKDKYDSASEMVVEKHRESRGWVETLRPRYTYFKVPTERDLVYYEASPNFCEPNPETGSFGTRDRTCNVSSHGIDGCDLLCCGRGHNARAERRREKCRCVFHWCCYVSCQECTRVYDVHTCK",impact on phenotype rescue (proportion of irregularly shaped to spherical organoids),[2]; WNT3A restored on day 3,biggest impact
same,organoid growth (cluster 6),[2]; WNT3A restored on day 3,increased
same,percentage of irregularly shaped organoids (cluster 7),[2]; WNT3A restored on day 3,substantially reduced
same,temporal phenotype trajectory,[2]; WNT3A restored on day 3,close overlap between day 3 WNT3A restoration and HOM conditions
same,HMM cluster transition graph,[2]; WNT3A restored on day 6,best reflects the ENR-only condition
same,impact on phenotype rescue (proportion of irregularly shaped to spherical organoids),[2]; WNT3A restored on day 6,little impact
same,HMM cluster transition graph,[2]; WNT3A restored on day 9,"introduces two new transitions, cluster 5-to-3 and cluster 4-to-2"
same,impact on phenotype rescue (proportion of irregularly shaped to spherical organoids),[2]; WNT3A restored on day 9,minimal impact
same,formation of morphologically flattened irregular organoids,[2]; WNT3A restored to ENR medium at day 3,largely prevented
same,induction of RSCs leading to morphologically irregular and flattened organoids in WNT-deprived ENR medium,[3],can be prevented
